Entries after “also recorded” stand apart in the source; their conditions may differ.
How the values were obtained:
[1] = Rat PK, cassette dosing, IV and PO; type: in vivo; conditions: for Cl (mL/min/Kg) / Vss (L/Kg) / AUC / Cmax / Tmax / half-life: Mean (SE); for AUC / Cmax / Tmax / half-life / bioavailability: plasma
Protocol: Rat PK data was determined using a cassette dosing format with 5 compounds administered to each of three rats for IV and three rats for PO. The IV dose was 1 mg/kg for each compound in 8.75% solutol, 8.75% ethanol, 12.5% DMSO and 70% water by volume. The PO dose was 2 mg/kg for each compound in 1% methylcellulose in water, 10% DMSO by volume. Plasma IV samples were collected at 15 min, 30 min, 1 hr, 2 hrs, 4 hrs, 8 hrs, and 24 hrs. Plasma PO samples were collected at 30 min, 1 hr, 2 hrs, 4 hrs, 8 hrs, and 24 hrs. Plasma drug concentrations were determined by LC/MS/MS after standard curve calibration for each test article. Dosing solutions were also analyzed for test article and used to calculate the administered dose. The PK parameters were calculated using WinNonLin (v 6.3, Phoenix 64, Pharsight) using a noncompartmental model.
Tables 1 and 2 show comparative data for both intravenous (IV) and peroral (PO) administration in rat for Compound P-001 of this disclosure and a similar structural compound disclosed in the WO 2014/145051, Compound Z. Values are reported as the Mean with the Standard Error (SE) in parentheses.

[2] = tested on: IPC298 Xenograft; assay: IPC298 xenograft model, tumor growth; type: in vivo, mice; conditions: for antitumor activity (in words): 10 mg/kg po QD x16; for Average Tumor Volume (mm^3) / Tumor Size (Day 27, mm^3) / TGI (%): 10 mg/kg po QD; for TGI (%): tumor growth inhibition
Protocol: Treatment: The treatments started on Day 11 after tumor inoculation when the mean tumor size reached approximately 150 mm^3. Mice were randomized into 10 study groups and each group consisted of 8 mice. The test articles were administrated to the tumor-bearing mice according to predetermined treatment regimen as shown in Table 3.
Tumor measurements and the endpoints: The major endpoint was to see if the tumor growth could be delayed or regressed. Tumor size was measured twice a week in two dimensions using a caliper, and the volume was expressed in mm^3 using the formula: V=0.5a×b^2 where a and b are the long and short diameters of the tumor, respectively. The tumor size was then used for calculation of tumor growth inhibition (TGI, in percent). The TGI value is an indication of antitumor effectiveness: TGI=(1−T/C)×100%. T and C are the means of relative tumor volumes of the treated and control groups, respectively. T and C are calculated using the formula: T=Td/T0×100%, C=Cd/C0×100%, where Td and Cd are tumor volumes of the treated and control animals, respectively, on Day 28 after tumor inoculation; T0 and C0 are tumor volumes of the treated and control animals, respectively, at the start of the treatment

[3] = Toxicity profile, body weight in Ba/F3 splenomegaly model; type: in vivo; design: Delta Body Weight Loss: unit not given here; conditions: for observed toxicity (in words): 10 mg/kg over 7 days of dosing; for Delta Body Weight Loss: 10 mg/kg oral QD
Source text: The […] cell line, Ba/F3, depends on the addition of IL-3 for growth in cell culture. However Ba/F3 cells engineered to express a full length oncogene is capable of rendering Ba/F3 cells factor-independent, but become apoptotic when the oncogene or downstream signaling is inhibited by the addition of small molecule inhibitors. When injected into the tail veins of nude mice, the factor-independent Ba/F3 cells home to the spleen and proliferate to cause a marked splenomegaly. The in vivo proliferation of the factor-independent Ba/F3 cells and appearance of splenomegaly are directly dependent on the activity of the Ba/F3 cells and can be blocked by oral administration of compounds that are effective inhibitors of cell growth. Therefore, this animal model can be used to ascertain the effective doses for Ba/F3 cell inhibition, evaluation of both PK/PD effects as well as a readout of toxicity or MTD.
FIG. 2 illustrates the observed toxicity when dosing Compound P-001 and Compound Z at 10 mg/kg to nu/nu mice over a period of 7 days.

[4] = Table 2, titled Peroral (PO) Administration in Rat
[5] = 1 mg/kg, Table 1, titled Intravenous (IV) Administration in Rat
[6] = 2 mg/kg, Table 2, titled Peroral (PO) Administration in Rat

Row | Compound | Cl (mL/min/Kg) [1, 4] | Vss (L/Kg) [1, 4] | AUC [1, 5] | Cmax [1, 5] | Tmax [1, 5] | half-life [1, 5] | AUC [1, 6] | bioavailability [1, 6] | antitumor activity (in words) [2] | Average Tumor Volume (mm^3) ([2]; Day 0) | Average Tumor Volume (mm^3) ([2]; Day 4) | Average Tumor Volume (mm^3) ([2]; Day 6) | Average Tumor Volume (mm^3) ([2]; Day 8) | Average Tumor Volume (mm^3) ([2]; Day 11) | Average Tumor Volume (mm^3) ([2]; Day 13) | Tumor Size (Day 27, mm^3) [2] | TGI (%) [2] | observed toxicity (in words) [3] | Delta Body Weight Loss ([3]; Day 1) | Delta Body Weight Loss ([3]; Day 2) | also measured
1 | Cc1noc(C)c1-c1cnc2c(-c3ccc(C(=O)O)cc3)cn(C(C)(c3ccccn3)c3ccccn3)c2c1 [Compound P-001, 4-(1-(1,1-di(pyridin-2-yl)ethyl)-6-(3,5-dimethylisoxazol-4-yl)-1H-pyrrolo[3,2-b]pyridin-3-yl)benzoic acid] | 3 (0) mL/min/Kg | 0.469 (0.015) L/Kg | 7670 ng·h/mL | 1210 ng/mL | 40.2 min | 248 min | 7670 ng·h/mL | 103% | strong antitumor activity; also recorded: strong therapeutic efficacy | 124.7 mm^3 | 94.5 mm^3 | 91.5 mm^3 | 90.0 mm^3 | 96.9 mm^3 | 99.2 mm^3 | 99.2 ± 13.5 mm^3 | 112% | no toxicity was observed | 0 | 0.75 | rat PK compared to Compound Z (in words) ([1]; IV and PO): dramatic improvement; Delta Body Weight Loss ([3]; Day 3): 1.375; Delta Body Weight Loss ([3]; Day 5): 1.125; Delta Body Weight Loss ([3]; Day 6): 1.825; Delta Body Weight Loss ([3]; Day 7): 2.075
2 | Cc1noc(C)c1-c1cnc2c(-c3ccc(C(=O)O)cc3)cn(C(c3ccccn3)c3ccccn3)c2c1 [Compound Z, reference compound] | 36 (4) mL/min/Kg | 1.061 (0.109) L/Kg | 125 ng·h/mL | 80 ng/mL | 30 min | 78.6 min | 125 ng·h/mL | 17% | moderate antitumor activity | 124.0 mm^3 | 119.8 mm^3 | 124.0 mm^3 | 120.6 mm^3 | 106.8 mm^3 | 141.5 mm^3 | 141.5 ± 16.3 mm^3 | 92% | significant toxicity after the 2nd day of dosing | 0 | −0.125 | Delta Body Weight Loss ([3]; Day 3): −0.6; Delta Body Weight Loss ([3]; Day 5): −1.125; Delta Body Weight Loss ([3]; Day 6): −2.475; Delta Body Weight Loss ([3]; Day 7): −3.75

From patent US12116365B2, “Heterocyclic compounds and uses thereof” (Opna Bio SA, priority 2015, dated 2024)
